Where a name gives a salt, the structure may show the parent alone. Read-outs that look alike come from different tables or passages of the source. Where only a bound is given, the exact number is not on record here.

The record followed here is patent US6310086A, “Indole derivatives and medicinal compositions containing the same” (Kissei Pharmaceutical Co., Ltd., priority 1998, dated 2001).

One data set concerns the target T1, α1-adrenoceptor (Rattus norvegicus, UniProt P43140).
T1 construct: Ductus deferenses (about 1.5 cm from testis side) were isolated; from tissue; host or cells: isolated ductus deferens (about 1.5 cm from testis side) of male Wistar rats, organ bath
T1 sequence (P43140 1-466): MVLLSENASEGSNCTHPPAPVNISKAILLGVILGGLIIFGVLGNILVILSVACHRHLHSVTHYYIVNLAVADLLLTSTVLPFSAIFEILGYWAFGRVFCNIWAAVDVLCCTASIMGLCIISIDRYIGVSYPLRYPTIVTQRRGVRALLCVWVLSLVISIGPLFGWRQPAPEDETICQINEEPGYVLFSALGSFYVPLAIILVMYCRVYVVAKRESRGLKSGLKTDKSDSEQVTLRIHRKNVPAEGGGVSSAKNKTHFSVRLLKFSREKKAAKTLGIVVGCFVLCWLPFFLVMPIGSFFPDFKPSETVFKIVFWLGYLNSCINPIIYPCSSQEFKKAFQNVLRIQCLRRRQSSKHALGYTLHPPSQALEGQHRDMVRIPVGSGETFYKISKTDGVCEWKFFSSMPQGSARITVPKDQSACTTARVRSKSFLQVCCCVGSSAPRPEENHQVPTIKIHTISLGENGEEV
In words: Test for Measuring α1-adrenoceptor Blocking Effect (inhibition of norepinephrine contraction of isolated ductus deferens). Type of data set: cell-based, rat (male Wistar). The conditions noted are these: 10 μM norepinephrine, propranorol 1 μM and yohimbine 0.1 μM.

The subject of a further data set is male SD rats. In words: Acute Toxicity Test (oral). In kind it is in vivo, rat (SD). The conditions noted are these: 1000 mg/kg. As to the method:
Male SD rats of 7 weeks age (n=5; 190-210 g in body weight) were fasted for 18 hours. (R)-3-[7-Carbamoyl-5-[2-[[2-(2-ethoxyphenoxy)ethyl]amino]propyl]-1H-indol- 1-yl]propyl pivalate hydrochloride which was suspended in 0.5% aqueous methylcellulose solution at a concentration of 100 mg/ml was orally administered to the rats at a dose of 1000 mg/kg.

A short description of data set [1]: Test for Measuring Drug Concentration in Aqueous Humor (2), after instillation of Compound C hydrochloride. Type of data set: in vivo, rabbit (Japanese White). The conditions noted are these: rabbit eye.
Description: To the collected aqueous humor (0.1 ml) was added internal standard [(R)-3-chloro-1-(3-hydroxypropyl)-5-[2-[[2-[2-(2,2,2-trifluoroethoxy)phenoxy]ethyl]amino]propyl]-1H-indole-7-carboxamide](10 ng), and 0.1M phosphate buffer (pH7.6) and sodium chloride (about 1 g) were added to the mixture. The resulting mixture was extracted with diethyl ether (5 ml), and the diethyl ether layer was concentrated under a stream of nitrogen.
Mobile phase: acetonitrile/0.1% phosphoric acid+2 mM sodium laurylsulfate=1/1
Fluorometry: excitation wave length 270 nm, emission wave length 435 nm
Data set [2] is described as follows: Test for Rate of Hydrolysis by Endogenous Enzyme in whole blood. Type of data set: in vitro ADME, rat (male Wistar). The conditions noted are these: for metabolised at 0.25 h: read-out: Decomposition rate, 15 minutes after; for metabolised at 1 h: read-out: Decomposition rate, 1 hour after; for metabolised at 2 h: read-out: Decomposition rate, 2 hours after. As to the method:
(§1) (1 μg), and the mixture was incubated at 37° C. After 15 minutes, 30 minutes, 1 hour and 2 hours, 0.7M aqueous sodium fluoride solution (0.5 ml) as an esterase inhibitor was added to each sample to stop the reaction.
(§2) Analytical column: Inertsil ODS-3 (4.6×250 mm)
(§3) Mobile phase: acetonitrile/20 mM acetate buffer (pH 5.0)=40/60 Column temperature: 50° C.
(§4) Fluorometry: excitation wavelength 270 nm, emission wavelength 435 nm

Another data set deals with Endogenous Enzyme. The description is as above. Conditions: blood, 2 hours. In kind it is in vitro ADME, rat (male Wistar). Here is the method: as §1, §2, §3, §4
The nature of data set [3]: Stability Test in aqueous solution. In kind it is physicochemical. The conditions noted are these: pH 5, decomposed into Compound A. As to the method: The test compounds were dissolved in 0. 1M acetate buffer (pH 5.0) to prepare 0.1% solutions. Each 0.1% solution was allowed to stand in the dark for 28 days at 40° C., 50° C., 60° C. and 70° C., respectively.
[4] abbreviates: rat whole blood, 37° C., 1 μg in 0.5 ml.
Setting [5] is: rat whole blood, 37° C., 1 μg in 0.5 ml, read-out: Decomposition rate, 30 minutes after.

Description for α1-adrenoceptor: Ductus deferenses (about 1.5 cm from testis side) were isolated frommaleWistar rats (about 300 to 350 g in body weight). […] A solution of a mixture containing propranorol and yohimbine (final concentration: propranorol 1 μM and yohimbine 0.1 μM) was added into the Magnus bath. After 30 minutes, norepinephrine at the final concentration of 10 μM was added into the Magnus bath until the maximum contraction was obtained, and each preparation was washed. This procedure was repeated several times until the heights of contraction were stable. Each preparation was pre-treated with a solution containing the test compound before 30 minutes, and the contractile responses by treatment of 10 μM norepinephrine were measured. Contraction of each preparation without pre-treatment of the test compound was expressed as 100%.

The compound `CCCC(=O)N1CCCN(c2nc(N)c3cc(OC)c(OC)cc3n2)CC1` [Bunazosin hydrochloride] showed an IC50 on α1-adrenoceptor of 315 nM.

In the case of `CCOc1ccccc1OCCN[C@H](C)Cc1cc(C(N)=O)c2c(ccn2CCCOC(=O)C(C)(C)C)c1.Cl` [Compound C hydrochloride, (R)-3-[7-Carbamoyl-5-[2-[[2-(2-ethoxyphenoxy)ethyl]amino]-propyl]-1H-indol-1-yl]propyl Pivalate Hydrochloride], the “fatal rats during 24 hours after administration” value with male SD rats is on record as “Any fatal rats were not observed”.

Consider `CCOc1ccccc1OCCN[C@H](C)Cc1cc(C(N)=O)c2c(ccn2CCCOC(=O)C(C)(C)C)c1` [Compound C, (R)-3-[7-Carbamoyl-5-[2-[[2-(2-ethoxyphenoxy)ethyl]amino]-propyl]-1H-indol-1-yl]propyl Pivalate], for which the “detection of the ester in aqueous humor” value in data set [1] (even after 20 minutes) is reported as “could not be detected in aqueous humor at all even after 20 minutes”.

On to `CCOc1ccccc1OCCN[C@H](C)Cc1cc(C(N)=O)c2c(ccn2CCCOC(=O)C(C)(C)C)c1` [Compound C], for which, in data set [1] (aqueous humor, topical or ocular, 50 ug/eye, 50 μl of 0.1% Compound C hydrochloride instilled, Compounds B and C determined, read-out: Drug concentrations in aqueous humor, 20 minutes after), the concentration at 20 min was below 1 ng/mL. Moreover, the concentration at 2 h in data set [1] (aqueous humor, topical or ocular, 50 ug/eye, 50 μl of 0.1% Compound C hydrochloride instilled, Compounds B and C determined, read-out: Drug concentrations in aqueous humor, 2 hours after) is below 1 ng/mL. Also, in data set [1] (aqueous humor, topical or ocular, 50 ug/eye, 50 μl of 0.1% Compound C hydrochloride instilled, Compounds B and C determined, read-out: Drug concentrations in aqueous humor, 6 hours after), the concentration at 6 h is below 1 ng/mL.

Take `C[C@H](Cc1cc(C(N)=O)c2c(ccn2CCCOC(=O)C(C)(C)C)c1)NCCOc1ccccc1OCC(F)(F)F` [Compound D, (R)-3-[7-Carbamoyl-5-[2-[[2-[2-(2,2,2-trifluoroethoxy)-phenoxy]ethyl]amino]propyl]-1H-indol-1-yl]propyl Pivalate]: the metabolised at 0.5 h in data set [2] (blood, 30 minutes) was around 67%. Further, the “conversion into Compound A after 2 hours” value in the data set on Endogenous Enzyme is recorded as “almost Compound A after 2 hours”. Besides, the degraded in data set [3] (40° C., about 1 month at 40° C.) was around 0.1%; in data set [3] (70° C., about 1 month at 70° C.) it was around 1.1%.

As to `C[C@H](Cc1cc(C(N)=O)c2c(ccn2CCCOC(=O)C(C)(C)C)c1)NCCOc1ccccc1OCC(F)(F)F` [Compound D], in data set [2] (setting [4]), the metabolised at 0.25 h came out at 54.8%, the metabolised at 1 h is 86.5% and the metabolised at 2 h is 98.6%. The metabolised at 0.5 h in data set [2] (setting [5]) worked out at 67.1%.

Take `CCC(CC)C(=O)OCCCn1ccc2cc(C[C@@H](C)NCCOc3ccccc3OCC(F)(F)F)cc(C(N)=O)c21` [Compound a, (R)-3-[7-Carbamoyl-5-[2-[[2-[2-(2,2,2-trifluoroethoxy)-phenoxy]ethyl]amino]propyl]-1H-indol-1-yl]propyl 2-ethyl-butyrate]: in data set [2] (blood, 30 minutes), the metabolised at 0.5 h was around 12%.

In the case of `CCC(CC)C(=O)OCCCn1ccc2cc(C[C@@H](C)NCCOc3ccccc3OCC(F)(F)F)cc(C(N)=O)c21` [Compound a], in data set [2] (setting [4]), the metabolised at 0.25 h is 8.4%, the metabolised at 1 h came to 12.6% and the metabolised at 2 h was 25.2%. Further, in data set [2] (setting [5]), the metabolised at 0.5 h was 12%.

Compound `CCCC(C)(C)C(=O)OCCCn1ccc2cc(C[C@@H](C)NCCOc3ccccc3OCC(F)(F)F)cc(C(N)=O)c21` [Compound b, (R)-3-[7-Carbamoyl-5-[2-[[2-[2-(2,2,2-trifluoroethoxy)-phenoxy]ethyl]amino]propyl]-1H-indol-1-yl]propyl 2,2-dimethylvalerate] had a metabolised at 0.5 h in data set [2] (blood, 30 minutes) of around 4%.

Take `CCCC(C)(C)C(=O)OCCCn1ccc2cc(C[C@@H](C)NCCOc3ccccc3OCC(F)(F)F)cc(C(N)=O)c21` [Compound b]: in data set [2] (setting [4]), the metabolised at 0.25 h was 2.2%, the metabolised at 1 h amounted to 7.5% and the metabolised at 2 h stood at 10.2%. The metabolised at 0.5 h in data set [2] (setting [5]) was found to be 3.8%.

As for `C[C@H](Cc1cc(C(N)=O)c2c(ccn2CCCOC(=O)C(C)(C)c2ccccc2)c1)NCCOc1ccccc1OCC(F)(F)F` [Compound c, (R)-3-[7-Carbamoyl-5-[2-[[2-[2-(2,2,2-trifluoroethoxy)-phenoxy]ethyl]amino]propyl]1H-indol-1-yl]propyl α,α-dimethylphenylacetate], the metabolised at 0.5 h in data set [2] (blood, 30 minutes) is around 2%.

Consider `C[C@H](Cc1cc(C(N)=O)c2c(ccn2CCCOC(=O)C(C)(C)c2ccccc2)c1)NCCOc1ccccc1OCC(F)(F)F` [Compound c], for which, in data set [2] (setting [4]), the metabolised at 0.25 h was 0.6%, the metabolised at 1 h was 3.2% and the metabolised at 2 h amounted to 3.7%. Further, the metabolised at 0.5 h in data set [2] (setting [5]) stood at 1.6%.

In data set [2] (blood, 30 minutes), `CCC(C)(C)C(=O)OCCCn1ccc2cc(C[C@@H](C)NCCOc3ccccc3OCC(F)(F)F)cc(C(N)=O)c21` [Compound d, (R)-3-[7-Carbamoyl-5-[2-[[2-[2-(2,2,2-trifluoroethoxy)-phenoxy]ethyl]amino]propyl]-1H-indol-1-yl]propyl 2,2-Dimethylbutyrate] had a metabolised at 0.5 h of around 6%.

As to `CCC(C)(C)C(=O)OCCCn1ccc2cc(C[C@@H](C)NCCOc3ccccc3OCC(F)(F)F)cc(C(N)=O)c21` [Compound d], in data set [2] (setting [4]), the metabolised at 0.25 h is 2.1%, the metabolised at 1 h worked out at 8.4% and the metabolised at 2 h turned out to be 21.7%. Further, the metabolised at 0.5 h in data set [2] (setting [5]) amounted to 5.6%.
